These results are taken from patent US20260248800A1, “FERROPTOSIS INHIBITORS AND USES THEREOF” (UNIVERSITY OF OTTAWA, priority 2022, published 2026).

The term EC50 denotes the concentration at which the effect is half-maximal. Usually half-life stands for the time needed for the level to fall by half in the phase considered. Usually viability stands for the share of living cells, or the viability signal relative to a control.

Molecules are shown by their SMILES. Like-named read-outs stand apart in the source and are kept apart here. Marks after values point to notes of the source that are not given here.

Data set [1] relates to Pfa-1 mouse embryonic fibroblasts (MEFs). As to the kind of experiment: cells. The conditions noted are these: Fibroblast.
Data set [2] has the same test system.
Data set [3] in a line: MeOAMVN-initiated co-autoxidation of STY-BODIPY and egg PC liposomes (FENIX). Particulars: for n (radical-trapping stoichiometry): MeOAMVN-initiated co-autoxidation of STY-BODIPY and egg PC liposomes. It counts as biochemical.
Data set [4] can be described thus: H-bond acidity (α2^H) of the RTA by 1H NMR. It counts as physicochemical. Particulars: estimated from the 1H NMR chemical shift difference of the amine proton in DMSO-d6 and benzene-d6.
The conditions of data set [5]: in dilinoleoyl phosphatidylcholine (PC) liposomes; cited from earlier work.
The conditions of data set [6]: inhibited autoxidation of styrene in chlorobenzene; cited from earlier work.
A short description of data set [7]: Liver microsome stability assay. The conditions noted are these: pH 7.4. (Microsomes from liver hold many membrane-bound enzymes, among them those of drug oxidation.)
For data set [8] the following is noted: at 37° C. in PhCl; literature; cited from earlier work.
Another data set concerns MEFs. The conditions noted are these: inhibition of RSL3-induced ferroptosis in MEFs; Shah et al., 2017; cited from earlier work.
For data set [9] the following is noted: mouse, microsomes.
Setting [10] is: 5 h, read-out: Pfa-1 MEF Ferroptosis EC50, RSL3-induced cell death (150 nM for 5 hours), AquaBluer.
Setting [11] is: Table 6, from survival curve of RSL3 induced ferroptosis of pfa-1 MEFS.
Setting [12] is: RSL3-induced cell death (150 nM for 5 hours), AquaBluer.
[13] abbreviates: apparent inhibition rate constant, MeOAMVN-initiated autoxidation of egg PC liposomes, determined by fluorescence.
Setting [14] is: read-out: Pfa-1 MEF Ferroptosis EC50, RSL3-induced cell death (150 nM for 5 hours), AquaBluer.
The mark [15] stands for this setting: apparent inhibition rate constant, MeOAMVN-initiated autoxidation of egg PC liposomes, determined by absorbance (STY-BODIPY 10-20 μM, 565 nm).
[16] abbreviates: measured in MeOAMVN-initiated autoxidation of egg PC liposomes.

`CC(c1ccc2c(c1)Nc1ccc(C(F)(F)F)cc1O2)S(=O)(=O)N1CCNCC1` (stereo not shown) [Compound 46, 2-(1-(piperazin-1-ylsulfonyl)ethyl)-7-(trifluoromethyl)-OH-phenoxazine]: the EC50 in data set [1] (setting [10]) and in data set [1] (setting [11]) was 3 ± 0.1 nM in each case. Further, in data set [2] (setting [12]), the “Pfa-1 MEF Ferroptosis EC50” value was “single-digit nanomolar potency”.

On to `CC(C)(C)c1ccc2c(c1)Nc1cc(C(F)(F)F)ccc1O2` [Compound 8, 2-tert-Butyl-8-trifluoromethylphenoxazine], for which the “n (radical-trapping stoichiometry)” value in data set [3] was 2.3 ± 0.1. The “kinh^lip” value in data set [3] (setting [13]) is recorded as “(64 ± 9) 10^5 M^−1s^−1”. For the same molecule, the EC50 in [1] (setting [10]) and in data set [1] (setting [11]) was 5.6 ± 0.3 nM each time. Besides, the “Pfa-1 MEF Ferroptosis EC50” value in [2] (setting [12]) is “single-digit nanomolar potency”.

On to `Cc1ccc2c(c1)Oc1cc(C)ccc1N2` [Compound 35, 3,7-Dimethylphenoxazine], for which the “kinh^lip” value in data set [3] (predicted from log kinh^0, α2^H and β2^H=0.69 using Eq. 4 (too reactive to be determined directly)) is given as 1180 ^f 10^5 M^−1s^−1. For the same molecule, the “predicted increase in kinh^lip relative to PNX” value in [3] (predicted/estimated kinh^lip vs PNX) was 5.1 fold. For the same molecule, the “α2^H” value in data set [4] is given as 0.41. Further, the EC50 in [1] (setting [10]) came to 6 nM; in data set [2] (setting [14]), 5.4 ± 0.2 nM.

`CC(C)(C)c1ccc2c(c1)Nc1ccc(C(F)(F)F)cc1O2` [Compound 11, 2-tert-Butyl-7-trifluoromethylphenoxazine]: the “n (radical-trapping stoichiometry)” value in [3] was found to be 2.6 ± 0.1. In data set [3] (setting [13]), the “kinh^lip” value is reported as “(44 ± 3) 10^5 M^−1s^−1”. The concentration for a half-maximal effect (EC50) in data set [1] (setting [10]) and in [1] (setting [11]) was 3.6 ± 0.2 nM throughout. The “Pfa-1 MEF Ferroptosis EC50” value in data set [2] (setting [12]) is on record as “single-digit nanomolar potency”.

With `CC(C)(C)c1ccc2c(c1)Oc1ccc(C(F)(F)F)cc1N2` [Compound 7, 3-tert-Butyl-8-trifluoromethylphenoxazine], the “n (radical-trapping stoichiometry)” value in data set [3] is listed as 2.8 ± 0.1. Moreover, the “kinh^lip” value in data set [3] (setting [13]) is given as “(75 ± 13) 10^5 M^−1s^−1”. In addition, the EC50 in data set [1] (setting [10]) and in [1] (setting [11]) was 4.1 ± 0.1 nM in each case. Further, the “Pfa-1 MEF Ferroptosis EC50” value in data set [2] (setting [12]) is listed as “single-digit nanomolar potency”.

In the case of `Cc1c(C)c2c(c(C)c1O)CC[C@@](C)(CCC[C@H](C)CCC[C@H](C)CCCC(C)C)O2` [α-TOH, α-tocopherol], the kinh is 6000 M⁻¹ s⁻¹ in [5] and 3e+06 M⁻¹ s⁻¹ in [6].

For the molecule `c1ccc2c(c1)Nc1ccccc1S2` [Compound 2, phenothiazine, reference compound], the “n (radical-trapping stoichiometry)” value in data set [3] came out at 1.9 ± 0.1. Also, in data set [3] (setting [15]), the “kinh^lip” value is “(110 ± 20)^e 10^5 M^−1s^−1”. Moreover, the half-life at 10 μM in data set [7] (BALB/c, mouse, liver microsomes) came to 11.5 min. In addition, the “α2^H” value in data set [4] is reported as 0.38. Further, the EC50 in data set [1] (setting [10]) and in data set [1] (setting [11]) was 24 ± 1 nM throughout. Further, the kinh in [8] is reported as ~ 8×10^6 M^−1s^−1.

As to `CCOC(=O)c1ccc(NC2CCCCC2)c(N)c1` [Fer-1, ferrostatin-1], the EC50 is 45 nM in the data set with MEFs, 27 ± 2 nM in [2] (setting [11]) and 27 nM in data set [2] (setting [14]). In data set [9], this molecule had a t1/2 of 5.3 ± 0.1 min. For the same molecule, in data set [8], the kinh is 300000 M⁻¹ s⁻¹.

As for `FC(F)(F)c1ccc2c(c1)Nc1ccccc1S2` [Compound 25, reference compound], the “n (radical-trapping stoichiometry)” value in data set [3] was found to be 2.5 ± 0.1. Also, in data set [3] (setting [13]), the “kinh^lip” value is listed as “(19 ± 1) 10^5 M^−1s^−1”. Also, in data set [4], the “α2^H” value is on record as 0.44. Also, the EC50 in data set [2] (setting [14]) was 16 ± 1 nM.

Consider `CC(C)(C)c1ccc2c(c1)Oc1cc(C(F)(F)F)ccc1N2` [Compound 10, 3-tert-Butyl-7-trifluoromethylphenoxazine], for which, in data set [3], the “n (radical-trapping stoichiometry)” value stood at 2.8 ± 0.1. For the same molecule, in data set [3] (setting [13]), the “kinh^lip” value was “(55 ± 10) 10^5 M^−1s^−1”. For the same molecule, the EC50 in [1] (setting [10]) and in [1] (setting [11]) was 5.2 ± 0.2 nM throughout. The “Pfa-1 MEF Ferroptosis EC50” value in [2] (setting [12]) is “single-digit nanomolar potency”.

In the case of `CC(c1ccc2c(c1)Nc1ccc(C(F)(F)F)cc1O2)S(=O)(=O)NCCN(C)C` (stereo not shown) [Compound 44, N-(2-(dimethylamino)ethyl)-1-(7-(trifluoromethyl)-10H-phenoxazin-2-yl)ethanesulfonamide], the EC50 in data set [1] (setting [10]) and in data set [1] (setting [11]) was 2.2 ± 0.1 nM each time. Also, the “Pfa-1 MEF Ferroptosis EC50” value in data set [2] (setting [12]) is “single-digit nanomolar potency”.

With `Clc1ccc2c(c1)Nc1ccccc1S2` [Compound 24, reference compound], in [3], the “n (radical-trapping stoichiometry)” value worked out at 2.1 ± 0.1. For the same molecule, the “kinh^lip” value in data set [3] (setting [13]) was “(39 ± 4) 10^5 M^−1s^−1”. For the same molecule, the “α2^H” value in data set [4] is 0.43. Further, in data set [2] (setting [14]), the concentration giving a half-maximal response (EC50) was determined as 56 ± 10 nM.

Regarding `O=[N+]([O-])c1ccc2c(c1)Sc1cc([N+](=O)[O-])ccc1N2` [Compound 29, 3,7-Dinitrophenothiazine, reference compound], the figures for the “kinh^lip” value in data set [3] (setting [13]) and in data set [3] (setting [16]) were “(0.41 ± 0.04) 10^5 M^−1s^−1” and 400 M⁻¹ s⁻¹, respectively. Moreover, the “α2^H” value in data set [4] is on record as 0.62. Besides, the EC50 in [1] (setting [10]) is greater than 1000 nM; in [2] (setting [14]), no less than 1000 nM. Moreover, the viability at 1000 µM in [1] (read-out: apparent cell viability) was roughly 50%.

As for `c1ccc2c(c1)Nc1ccccc1O2` [Compound 1, phenoxazine, reference compound], the “n (radical-trapping stoichiometry)” value in data set [3] was 2.0 ± 0.1. Moreover, the “kinh^lip” value in [3] (setting [15]) is “(232 ± 23)^e 10^5 M^−1s^−1”; in data set [3] (setting [16]), 220000 M⁻¹ s⁻¹. Moreover, the EC50 in the data set on MEFs was 9 nM; in data set [1] it was 16 ± 1 nM; in data set [1] (5 h, read-out: Pfa-1 MEF Ferroptosis EC50), 16 nM. Moreover, in data set [4], the “α2^H” value is 0.44. Moreover, the kinh in data set [8] is ~ 4×10^7 M^−1s^−1.

For `Cc1cccc2c1Nc1c(C)cccc1S2` [Compound 31, 1,9-dimethylphenothiazine, reference compound], the “n (radical-trapping stoichiometry)” value in data set [3] was found to be 1.7 ± 0.1. Further, the “kinh^lip” value in data set [3] (setting [13]) is listed as “(98 ± 5) 10^5 M^−1s^−1”. The “α2^H” value in data set [4] is listed as 0.06. Besides, in [1] (setting [10]), the EC50 was found to be 35 ± 2 nM.

Take `FC(F)(F)c1ccc2c(c1)Nc1ccccc1O2` [Compound 6, 2-trifluoromethylphenoxazine]: the “n (radical-trapping stoichiometry)” value in data set [3] stood at 3.0 ± 0.1. In data set [3] (setting [13]), the “kinh^lip” value is “(75 ± 11) 10^5 M^−1s^−1”. Further, the “α2^H” value in data set [4] is listed as 0.51. Also, the EC50 in data set [1] (setting [10]) stood at 9 nM; in data set [2] (setting [14]), 8.8 ± 0.5 nM.

With `c1ccc2c(c1)Nc1cc3ccccc3cc1S2` [Compound 5, 12H-Benzo[b]phenothiazine, reference compound], the “n (radical-trapping stoichiometry)” value in data set [3] came out at 1.9 ± 0.1. In addition, the “kinh^lip” value in [3] (setting [13]) is given as “(51 ± 3) 10^5 M^−1s^−1”. For the same molecule, in data set [4], the “α2^H” value was 0.40. The EC50 in data set [1] (setting [10]) stood at 7.8 ± 0.2 nM.

With `Clc1cccc(CN=C2Nc3ccccc3NC23CCNCC3)c1` [Lip-1, liproxstatin-1], the EC50 with MEFs was 35 nM; in data set [2] (setting [11]), 18 ± 1 nM; in [2] (setting [14]), 18 nM. In [7] (BALB/c mouse liver microsomes increased (1.0 mg/mL), 1 mM NADPH, 37° C., 10 μM compound (Verapamil 1 μM)), the t1/2 result is recorded as “(133 ± 8.4) ^d min”. The kinh in data set [8] is 200000 M⁻¹ s⁻¹.
